Results reported in patent US20110230485A1, “6-PHENYL-PYRIMIDIN-4-YL-(PHENYLAMINE OR PHENOXY) DERIVATIVES USEFUL AS MODULATORS OF NICOTINIC ACETYLCHOLINE RECEPTORS” (NEUROSEARCH A/S, priority 2008, published 2011).

Assays:
[1] = biological target: T1, wild-type nAChR α7 receptors (Homo sapiens, UniProt P36544); experiment: Positive modulation of nAChR α7 receptors expressed in Xenopus laevis oocytes, two-electrode voltage clamp; format: cell-based; conditions: oocytes clamped at −60 mV; for Emax: read-out: Imax; for EC50: positive modulation of current induced by 100 μM acetylcholine, test compound 0.01-31.6 μM applied 30 s before and during acetylcholine
T1 construct: expressed in transfected cells; host or cells: Xenopus laevis oocytes
T1 sequence (P36544 23-502): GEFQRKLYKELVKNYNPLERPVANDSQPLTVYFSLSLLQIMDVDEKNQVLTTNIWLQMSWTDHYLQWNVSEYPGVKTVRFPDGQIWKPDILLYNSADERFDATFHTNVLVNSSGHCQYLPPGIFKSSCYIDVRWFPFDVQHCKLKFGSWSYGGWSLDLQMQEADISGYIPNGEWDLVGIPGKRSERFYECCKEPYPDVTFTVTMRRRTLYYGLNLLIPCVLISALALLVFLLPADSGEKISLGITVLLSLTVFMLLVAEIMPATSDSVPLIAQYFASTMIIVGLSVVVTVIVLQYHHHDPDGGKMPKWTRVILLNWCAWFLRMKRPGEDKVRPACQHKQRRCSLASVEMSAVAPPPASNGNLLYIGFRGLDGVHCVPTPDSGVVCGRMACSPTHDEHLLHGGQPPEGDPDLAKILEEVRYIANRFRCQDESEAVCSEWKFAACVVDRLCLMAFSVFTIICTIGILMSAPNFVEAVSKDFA
Procedure: In this example the positive modulation of wild-type nAChR α7 receptors by the compounds of the invention was determined using nAChR α7 receptors heterologously expressed in Xenopus laevis oocytes.
The electrical current through the nAChR α7 channel was measured using conventional two-electrode voltage clamp and nAChR α7 currents were activated by applying pulses of agonist-containing solution onto the nAChR α7 expressing oocyte.
In brief, the oocytes were placed in a recording chambers and continuously super-fused with an Oocyte Ringer (OR) solution containing 90 mM NaCl, 2.5 mM KCl, 2.5 mM CaCl2, 1 mM MgCl2 and 5 mM HEPES (pH adjusted to 7.4). The oocytes were clamped at −60 mV and currents were induced by applying 20 s pulses of 100 μM acetylcholine dissolved in OR. The intervals between the acetylcholine applications were 5 minutes, during which the oocytes were washed with OR. The first three applications were control applications to insure a constant response level of 100 μM acetylcholine. For the subsequent test applications, increasing concentrations (0.01-31.6 μM) of the test compound were applied 30 s before and during the acetylcholine (100 μM) application, which caused a robust increase in the acetylcholine-induced current amplitude.
The positive modulation in the presence of Compound was calculated as (test-control)/control×100% and the concentration response curve for this positive modulation was fitted to the sigmoidal logistic equation:
I=Imax/(1+(EC50/[compound])^n),
where Imax represents the maximal modulation of the control response, EC50 is the concentration causing a half maximal response, and n is the slope coefficient.

[2] = maximal modulation of the control response to 100 μM acetylcholine, (test-control)/control×100%

| SMILES | Emax [1, 2] [%] | EC50 [1] [µM] | melting point [°C] | Imax [1, 2] [%] |
| --- | --- | --- | --- | --- |
| Nc1c(Nc2ccc3[nH]ccc3c2)ncnc1-c1ccc(C(F)(F)F)cc1F [Compound 1.10, 6-(2-Fluoro-4-trifluoromethyl-phenyl)-N*4*-(1H-indol-5-yl)-pyrimidine-4,5-diamine] | 631 | 0.24 |  |  |
| COc1ccc(Nc2nc(C)nc(-c3ccc(C(F)(F)F)cc3F)c2N)cc1 [Compound 1.16, 6-(2-Fluoro-4-trifluoromethyl-phenyl)-N*4*-(4-methoxy-phenyl)-2-methyl-pyrimidine-4,5-diamine] | 495 | 4.9 |  |  |
| COc1ccc(Nc2ncnc(-c3ccc(C(F)(F)F)cc3F)c2[N+](=O)[O-])cn1 [Compound 1.5, [6-(2-Fluoro-4-trifluoromethyl-phenyl)-5-nitro-pyrimidin-4-yl]-(6-methoxy-pyridin-3-yl)-amine] | 137 | 6.6 |  |  |
| O=[N+]([O-])c1c(Nc2ccc3[nH]ccc3c2)ncnc1-c1ccc(C(F)(F)F)cc1F [Compound 1.9, [6-(2-Fluoro-4-trifluoromethyl-phenyl)-5-nitro-pyrimidin-4-yl]-(1H-indol-5-yl)-amine] | 527 | 6.9 |  |  |
| O=[N+]([O-])c1c(Nc2ccc(O)cc2)ncnc1-c1ccc(C(F)(F)F)cc1F [Compound 1.2, 4-[6-(2-Fluoro-4-trifluoromethyl-phenyl)-5-nitro-pyrimidin-4-ylamino]-phenol] | 391 | 23 | 169 to 171.5 |  |
| Nc1c(Nc2ccc(O)cc2)ncnc1-c1ccc(C(F)(F)F)cc1F [Compound 1.4, 4-[5-Amino-6-(2-fluoro-4-trifluoromethyl-phenyl)-pyrimidin-4-ylamino]-phenol] |  |  | 194.2 to 195.7 |  |
| Cc1nc(Nc2ccc3c(c2)OCCO3)c(N)c(-c2ccc(C(F)(F)F)cc2F)n1 [Compound 1.29, N*4*-(2,3-Dihydro-benzo[1,4 dioxin-6-yl)-6-(2-fluoro-4-trifluoromethyl-phenyl)-2-methyl-pyrimidine-4,5-diamine] | 297 | 9.4 |  |  |
| COc1ccc(Nc2ncnc(-c3ccc(C(F)(F)F)cc3F)c2N)cc1 [Compound 1.3, 6-(2-Fluoro-4-trifluoromethyl-phenyl)-N*4*-(4-methoxy-Phenyl)-pyrimidine-4,5-diamine] |  | 2.3 | 212.1 to 213.2 |  |
| Nc1c(Nc2ccc(O)nc2)ncnc1-c1ccc(C(F)(F)F)cc1F [Compound 1.11, 5-[5-Amino-6-(2-fluoro-4-trifluoromethyl-phenyl)-pyrimidin-4-ylamino]-pyridin-2-ol] | 22 |  |  |  |
| COc1ccc(Nc2ncnc(-c3ccc(C(F)(F)F)cc3F)c2N)cn1 [Compound 1.6, 6-(2-Fluoro-4-trifluoromethyl-phenyl)-N*4*-(6-methoxy-rwridin-3-yl)-pyrimidine-4,5-diamine] |  |  |  | 129 |
| Cc1ccc(Nc2nc(C)nc(-c3ccc(C(F)(F)F)cc3F)c2N)cc1 [Compound 1.27, 6-(2-Fluoro-4-trifluoromethyl-phenyl)-2-methyl-N*4*-p-tolyl-pyrimidine-4,5-diamine] | 503 | 3.4 |  |  |
| Nc1c(Nc2ccc(OCC3CC3)cc2)ncnc1-c1ccc(C(F)(F)F)cc1F [Compound 1.14, N*4*-(4-Cyclopropylmethoxy-phenyl)-6-(2-fluoro-4-trifluoromethyl-phenyl)-pyrimidine-4,5-diamine] | 3 |  |  |  |
| Nc1c(Nc2ccc3c(c2)OCO3)ncnc1-c1ccc(C(F)(F)F)cc1F [Compound 1.13, N*4*-Benzo[1,3]dioxol-5-yl-6-(2-fluoro-4-trifluoromethyl-phenyl)-pyrimidine-4,5-diamine] | 848 | 54 |  |  |
| Nc1c(Nc2ccc(S(N)(=O)=O)cc2)ncnc1-c1ccc(C(F)(F)F)cc1F [Compound 1.8, 4-[5-Amino-6-(2-fluoro-4-trifluoromethyl-phenyl)-pyrimidin-4-ylamino]-benzenesulfonamide] | 237 | 6.8 |  |  |
| Nc1c(Nc2ccc3[nH]ncc3c2)ncnc1-c1ccc(C(F)(F)F)cc1F [Compound 1.12, 6-(2-Fluoro-4-trifluoromethyl-phenyl)-N*4*-(1H-indazol-5-yl)-pyrimidine-4,5-diamine] | 184 | 9.9 |  |  |
| COc1ccc(Nc2ncnc(-c3ccc(C(F)(F)F)cc3F)c2[N+](=O)[O-])cc1 [Compound 1.1, [6-(2-Fluoro-4-trifluoromethyl-phenyl)-5-nitro-pyrimidin-4-yl]-(4-methoxy-phenyl)-amine] | 2 |  | 155.6 to 155.8 |  |
| COc1cccc(Nc2nc(C)nc(-c3ccc(C(F)(F)F)cc3F)c2N)c1 [Compound 1.31, 6-(2-Fluoro-4-trifluoromethyl-phenyl)-N*4*-(3-methoxy-phenyl)-2-methyl-pyrimidine-4,5-diamine] | 193 | 5.7 |  |  |

Continued, values first:

| Emax [1, 2] [%] | EC50 [1] [µM] | melting point [°C] | Imax [1, 2] [%] | SMILES |
| --- | --- | --- | --- | --- |
| 119 | 6.6 |  |  | COc1ccc(Oc2ncnc(-c3ccc(C(F)(F)F)cc3F)c2N)cc1 [Compound 2.2, 4-(2-Fluoro-4-trifluoromethyl-phenyl)-6-(4-methoxy-phenoxy)-pyrimidin-5-ylamine] |
| 35 | 0.74 |  |  | Cc1nc(Oc2ccc3c(c2)OCO3)c(N)c(-c2ccc(C(F)(F)F)cc2F)n1 [Compound 2.9] |
| 42 | 6 |  |  | COc1ccc(Oc2nc(C)nc(-c3ccc(C(F)(F)F)cc3F)c2N)cc1 [Compound 2.13, 4-(2-Fluoro-4-trifluoromethyl-phenyl)-6-(4-methoxy-phenoxy)-2-methyl-pyrimidin-5-ylamine] |
| 148 | 4.3 |  |  | Cc1nc(Nc2ccc3ccccc3c2)c(N)c(-c2ccc(C(F)(F)F)cc2F)n1 [Compound 1.34, 6-(2-Fluoro-4-trifluoromethyl-phenyl)-2-methyl-N*4*-naphthalen-2-v1-pyrimidine-4,5-diamine] |
| 104 | 15 |  |  | Nc1c(Oc2ccc(O)cc2)ncnc1-c1ccc(C(F)(F)F)cc1F [Compound 2.3] |
| 245 | 9.8 |  |  | CSc1cccc(Nc2nc(C)nc(-c3ccc(C(F)(F)F)cc3F)c2N)c1 [Compound 1.32, 6-(2-Fluoro-4-trifluoromethyl-phenyl)-2-methyl-N*4*-(3-methylsulfanyl-phenyl)-pyrimidine-4,5-diamine] |
| 11 | 1.1 |  |  | COc1ccc(Nc2nc(C)nc(-c3ccc(C(F)(F)F)cc3F)c2N)c(OC)c1 [Compound 1.33, N*4*-(2,4-Dimethoxy-phenyl)-6-(2-fluoro-4-trifluoromethyl-phenyl)-2-methyl-pyrimidine-4,5-diamine] |
| 19 |  |  |  | COc1ccc(Oc2ncnc(-c3ccc(C(F)(F)F)cc3F)c2[N+](=O)[O-])cc1 [Compound 2.1, 4-(2-Fluoro-4-trifluoromethyl-phenyl)-6-(4-methoxy-phenoxy)-5-nitro-pyrimidine] |
